Experimental data from PubChem BioAssay (NCI).
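Where inhibition never reached the appropriate level, the endpoint shown equals the highest concentration tested. Otherwise, values were interpolated linearly from a five-concentration, 48-hour dose response in 96-well plates. TGI: total growth inhibition.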

Columns and labels:
Test in all cases: NCI-60 cell line screen, 48 h
RXF 393 renal = tested on: RXF 393 renal
CAKI-1 renal = tested on: CAKI-1 renal
SNB-19 CNS = tested on: SNB-19 CNS
MOLT-4 leukemia = tested on: MOLT-4 leukemia
UACC-257 melanoma = tested on: UACC-257 melanoma
RPMI-8226 leukemia = tested on: RPMI-8226 leukemia
LOX IMVI melanoma = tested on: LOX IMVI melanoma
SF-295 CNS = tested on: SF-295 CNS
MALME-3M melanoma = tested on: MALME-3M melanoma
SK-OV-3 ovarian = tested on: SK-OV-3 ovarian
IGROV1 ovarian = tested on: IGROV1 ovarian
NCI-H460 lung = tested on: NCI-H460 lung
SF-539 CNS = tested on: SF-539 CNS
M14 melanoma = tested on: M14 melanoma
NCI-H226 lung = tested on: NCI-H226 lung
NCI-H23 lung = tested on: NCI-H23 lung
TK-10 renal = tested on: TK-10 renal
SK-MEL-28 melanoma = tested on: SK-MEL-28 melanoma
786-0 renal = tested on: 786-0 renal
A498 renal = tested on: A498 renal
SW-620 colon = tested on: SW-620 colon
SNB-75 CNS = tested on: SNB-75 CNS
HT29 colon = tested on: HT29 colon
MDA-N = tested on: MDA-N
SN12C renal = tested on: SN12C renal
SK-MEL-2 melanoma = tested on: SK-MEL-2 melanoma
NCI/ADR-RES ovarian = tested on: NCI/ADR-RES ovarian
EKVX NSCLC = tested on: EKVX NSCLC
SF-268 CNS = tested on: SF-268 CNS
OVCAR-8 ovarian = tested on: OVCAR-8 ovarian
OVCAR-5 ovarian = tested on: OVCAR-5 ovarian
U251 CNS = tested on: U251 CNS
UACC-62 melanoma = tested on: UACC-62 melanoma
SK-MEL-5 melanoma = tested on: SK-MEL-5 melanoma
KM12 colon = tested on: KM12 colon
OVCAR-3 ovarian = tested on: OVCAR-3 ovarian
NCI-H522 lung = tested on: NCI-H522 lung
HCT-116 colon = tested on: HCT-116 colon
HOP-62 NSCLC = tested on: HOP-62 NSCLC
MDA-MB-231 breast = tested on: MDA-MB-231 breast
T-47D breast = tested on: T-47D breast
K-562 leukemia = tested on: K-562 leukemia
UO-31 renal = tested on: UO-31 renal
MCF7 breast = tested on: MCF7 breast
ACHN renal = tested on: ACHN renal
COLO 205 colon = tested on: COLO 205 colon
HS 578T breast = tested on: HS 578T breast
SR leukemia = tested on: SR leukemia
HCT-15 colon = tested on: HCT-15 colon
OVCAR-4 ovarian = tested on: OVCAR-4 ovarian
MDA-MB-435 = tested on: MDA-MB-435
BT-549 breast = tested on: BT-549 breast
A549 NSCLC = tested on: A549 NSCLC
PC-3 prostate = tested on: PC-3 prostate
HOP-92 NSCLC = tested on: HOP-92 NSCLC
DU-145 prostate = tested on: DU-145 prostate
CCRF-CEM leukemia = tested on: CCRF-CEM leukemia

## c1ccc(CCc2cccnc2)nc1
RXF 393 renal
  TGI: > 100 µM
CAKI-1 renal
  TGI: > 100 µM
SNB-19 CNS
  TGI: > 100 µM
MOLT-4 leukemia
  TGI: > 100 µM
UACC-257 melanoma
  TGI: > 100 µM
RPMI-8226 leukemia
  TGI: > 100 µM
LOX IMVI melanoma
  TGI: > 100 µM
SF-295 CNS
  TGI: > 100 µM
MALME-3M melanoma
  TGI: > 100 µM
SK-OV-3 ovarian
  TGI: > 100 µM
IGROV1 ovarian
  TGI: > 100 µM
NCI-H460 lung
  TGI: > 100 µM
SF-539 CNS
  TGI: > 100 µM
M14 melanoma
  TGI: > 100 µM
NCI-H226 lung
  TGI: > 100 µM
NCI-H23 lung
  TGI: > 100 µM
TK-10 renal
  TGI: > 100 µM
SK-MEL-28 melanoma
  TGI: > 100 µM
786-0 renal
  TGI: > 100 µM
A498 renal
  TGI: > 100 µM
SW-620 colon
  TGI: > 100 µM
SNB-75 CNS
  TGI: > 100 µM
HT29 colon
  TGI: > 100 µM
MDA-N
  TGI: > 100 µM
SN12C renal
  TGI: > 100 µM
SK-MEL-2 melanoma
  TGI: > 100 µM
NCI/ADR-RES ovarian
  TGI: > 100 µM
EKVX NSCLC
  TGI: > 100 µM
SF-268 CNS
  TGI: > 100 µM
OVCAR-8 ovarian
  TGI: > 100 µM
OVCAR-5 ovarian
  TGI: > 100 µM
U251 CNS
  TGI: > 100 µM
UACC-62 melanoma
  TGI: > 100 µM
SK-MEL-5 melanoma
  TGI: > 100 µM
KM12 colon
  TGI: > 100 µM
OVCAR-3 ovarian
  TGI: > 100 µM
NCI-H522 lung
  TGI: > 100 µM
HCT-116 colon
  TGI: > 100 µM
HOP-62 NSCLC
  TGI: > 100 µM
MDA-MB-231 breast
  TGI: > 100 µM
T-47D breast
  TGI: > 100 µM
K-562 leukemia
  TGI: > 100 µM
UO-31 renal
  TGI: > 100 µM
MCF7 breast
  TGI: > 100 µM
ACHN renal
  TGI: > 100 µM
COLO 205 colon
  TGI: > 100 µM
HS 578T breast
  TGI: > 100 µM
SR leukemia
  TGI: > 100 µM
HCT-15 colon
  TGI: > 100 µM
OVCAR-4 ovarian
  TGI: > 100 µM
MDA-MB-435
  TGI: > 100 µM
BT-549 breast
  TGI: > 100 µM
A549 NSCLC
  TGI: > 100 µM
PC-3 prostate
  TGI: > 100 µM
HOP-92 NSCLC
  TGI: > 100 µM

## C[N+]12C=CC=C1C(N1CCCC1)c1scc(-c3ccccc3)c12 (stereo not drawn)
RXF 393 renal
  TGI: 90.1 µM
CAKI-1 renal
  TGI: > 100 µM
SNB-19 CNS
  TGI: > 100 µM
MOLT-4 leukemia
  TGI: 64.6 µM
RPMI-8226 leukemia
  TGI: > 100 µM
LOX IMVI melanoma
  TGI: > 100 µM
SF-295 CNS
  TGI: > 100 µM
MALME-3M melanoma
  TGI: 49.8 µM
SK-OV-3 ovarian
  TGI: > 100 µM
IGROV1 ovarian
  TGI: 31.6 µM
M14 melanoma
  TGI: > 100 µM
NCI-H226 lung
  TGI: 28.9 µM
SK-MEL-28 melanoma
  TGI: > 100 µM
786-0 renal
  TGI: > 100 µM
A498 renal
  TGI: > 100 µM
DU-145 prostate
  TGI: > 100 µM
SW-620 colon
  TGI: > 100 µM
SNB-75 CNS
  TGI: 47.8 µM
HT29 colon
  TGI: 24.4 µM
MDA-N
  TGI: 84.3 µM
SN12C renal
  TGI: 70 µM
SK-MEL-2 melanoma
  TGI: 42.3 µM
NCI/ADR-RES ovarian
  TGI: > 100 µM
EKVX NSCLC
  TGI: > 100 µM
SF-268 CNS
  TGI: > 100 µM
OVCAR-8 ovarian
  TGI: > 100 µM
OVCAR-5 ovarian
  TGI: > 100 µM
U251 CNS
  TGI: > 100 µM
UACC-62 melanoma
  TGI: > 100 µM
SK-MEL-5 melanoma
  TGI: 27.6 µM
KM12 colon
  TGI: 31.3 µM
OVCAR-3 ovarian
  TGI: 87.8 µM
NCI-H522 lung
  TGI: 29.7 µM
HCT-116 colon
  TGI: > 100 µM
HOP-62 NSCLC
  TGI: > 100 µM
MDA-MB-231 breast
  TGI: > 100 µM
T-47D breast
  TGI: 78.4 µM
K-562 leukemia
  TGI: 29.1 µM
UO-31 renal
  TGI: > 100 µM
MCF7 breast
  TGI: 71.7 µM
COLO 205 colon
  TGI: 41.2 µM
HS 578T breast
  TGI: 67.5 µM
SR leukemia
  TGI: 37.4 µM
CCRF-CEM leukemia
  TGI: > 100 µM
MDA-MB-435
  TGI: > 100 µM
BT-549 breast
  TGI: > 100 µM
A549 NSCLC
  TGI: > 100 µM
PC-3 prostate
  TGI: 89.9 µM
